From the NIST ThermoML archive (doi:10.1016/j.jct.2015.09.018)
± gives the expanded uncertainty stated by the source.

Assay: molar heat capacity at constant pressure
Details: 101.33 kPa, Crystal 3, relaxation calorimetry

[O-2].[O-2].[Ti+4] [titanium(IV) oxide]
molar heat capacity at constant pressure (0.5 K): 0.000432 ± 3.8e-05 J/K/mol | molar heat capacity at constant pressure (1 K): 0.00103 ± 7e-05 J/K/mol | molar heat capacity at constant pressure (1.5 K): 0.00196 ± 0.00012 J/K/mol | molar heat capacity at constant pressure (2 K): 0.00337 ± 0.00019 J/K/mol | molar heat capacity at constant pressure (2.01 K): 0.00218 ± 0.00019 J/K/mol | molar heat capacity at constant pressure (2.35 K): 0.00327 ± 0.00019 J/K/mol | molar heat capacity at constant pressure (2.47 K): 0.00544 ± 0.00033 J/K/mol | molar heat capacity at constant pressure (2.5 K): 0.00541 ± 0.00031 J/K/mol | molar heat capacity at constant pressure (2.88 K): 0.00862 ± 0.00048 J/K/mol | molar heat capacity at constant pressure (3 K): 0.00821 ± 0.00046 J/K/mol | molar heat capacity at constant pressure (3.5 K): 0.0119 ± 0.0007 J/K/mol | molar heat capacity at constant pressure (3.72 K): 0.01489 ± 0.00081 J/K/mol | molar heat capacity at constant pressure (4 K): 0.0165 ± 0.0009 J/K/mol | molar heat capacity at constant pressure (4.31 K): 0.02048 ± 0.0011 J/K/mol | molar heat capacity at constant pressure (4.5 K): 0.0221 ± 0.0012 J/K/mol | molar heat capacity at constant pressure (4.54 K): 0.02277 ± 0.0012 J/K/mol | molar heat capacity at constant pressure (4.77 K): 0.02538 ± 0.0014 J/K/mol | molar heat capacity at constant pressure (5 K): 0.0288 ± 0.0016 J/K/mol | molar heat capacity at constant pressure (5.03 K): 0.02844 ± 0.0015 J/K/mol | molar heat capacity at constant pressure (5.32 K): 0.03402 ± 0.0018 J/K/mol | molar heat capacity at constant pressure (5.5 K): 0.0365 ± 0.002 J/K/mol | molar heat capacity at constant pressure (5.56 K): 0.03861 ± 0.0021 J/K/mol | molar heat capacity at constant pressure (5.85 K): 0.04314 ± 0.0023 J/K/mol | molar heat capacity at constant pressure (6 K): 0.0454 ± 0.0025 J/K/mol | molar heat capacity at constant pressure (6.14 K): 0.04818 ± 0.0026 J/K/mol | molar heat capacity at constant pressure (6.46 K): 0.05442 ± 0.0029 J/K/mol | molar heat capacity at constant pressure (6.5 K): 0.0553 ± 0.003 J/K/mol | molar heat capacity at constant pressure (6.84 K): 0.06161 ± 0.0033 J/K/mol | molar heat capacity at constant pressure (7 K): 0.0662 ± 0.0036 J/K/mol | molar heat capacity at constant pressure (7.16 K): 0.06852 ± 0.0037 J/K/mol | molar heat capacity at constant pressure (7.5 K): 0.0782 ± 0.0042 J/K/mol | molar heat capacity at constant pressure (7.53 K): 0.07958 ± 0.0043 J/K/mol | molar heat capacity at constant pressure (7.93 K): 0.08951 ± 0.0048 J/K/mol | molar heat capacity at constant pressure (8 K): 0.0911 ± 0.0049 J/K/mol | molar heat capacity at constant pressure (8.34 K): 0.1005 ± 0.0054 J/K/mol | molar heat capacity at constant pressure (8.5 K): 0.105 ± 0.006 J/K/mol | molar heat capacity at constant pressure (8.78 K): 0.1124 ± 0.006 J/K/mol | molar heat capacity at constant pressure (9 K): 0.12 ± 0.006 J/K/mol | molar heat capacity at constant pressure (9.23 K): 0.1263 ± 0.0068 J/K/mol | molar heat capacity at constant pressure (9.5 K): 0.135 ± 0.007 J/K/mol | molar heat capacity at constant pressure (9.74 K): 0.1441 ± 0.0077 J/K/mol | molar heat capacity at constant pressure (10 K): 0.152 ± 0.008 J/K/mol | molar heat capacity at constant pressure (10.23 K): 0.1603 ± 0.0086 J/K/mol | molar heat capacity at constant pressure (10.79 K): 0.1786 ± 0.0096 J/K/mol | molar heat capacity at constant pressure (11 K): 0.187 ± 0.01 J/K/mol | molar heat capacity at constant pressure (11.34 K): 0.2003 ± 0.011 J/K/mol | molar heat capacity at constant pressure (11.93 K): 0.2256 ± 0.012 J/K/mol | molar heat capacity at constant pressure (12 K): 0.227 ± 0.012 J/K/mol | molar heat capacity at constant pressure (12.55 K): 0.2505 ± 0.013 J/K/mol | molar heat capacity at constant pressure (13 K): 0.271 ± 0.015 J/K/mol | molar heat capacity at constant pressure (13.2 K): 0.2793 ± 0.015 J/K/mol | molar heat capacity at constant pressure (13.91 K): 0.3136 ± 0.017 J/K/mol | molar heat capacity at constant pressure (14 K): 0.318 ± 0.017 J/K/mol | molar heat capacity at constant pressure (14.6 K): 0.3493 ± 0.019 J/K/mol | molar heat capacity at constant pressure (15 K): 0.37 ± 0.02 J/K/mol | molar heat capacity at constant pressure (15.37 K): 0.3923 ± 0.021 J/K/mol | molar heat capacity at constant pressure (16 K): 0.428 ± 0.023 J/K/mol | molar heat capacity at constant pressure (16.16 K): 0.4371 ± 0.023 J/K/mol | molar heat capacity at constant pressure (16.99 K): 0.4905 ± 0.026 J/K/mol | molar heat capacity at constant pressure (17 K): 0.491 ± 0.026 J/K/mol | molar heat capacity at constant pressure (17.87 K): 0.5493 ± 0.029 J/K/mol | molar heat capacity at constant pressure (18 K): 0.559 ± 0.03 J/K/mol | molar heat capacity at constant pressure (18.78 K): 0.6158 ± 0.033 J/K/mol | molar heat capacity at constant pressure (19 K): 0.634 ± 0.034 J/K/mol | molar heat capacity at constant pressure (19.77 K): 0.6928 ± 0.037 J/K/mol | molar heat capacity at constant pressure (20 K): 0.714 ± 0.038 J/K/mol | molar heat capacity at constant pressure (20.78 K): 0.7811 ± 0.042 J/K/mol | molar heat capacity at constant pressure (21.84 K): 0.8773 ± 0.047 J/K/mol | molar heat capacity at constant pressure (23.01 K): 0.9887 ± 0.053 J/K/mol | molar heat capacity at constant pressure (24.2 K): 1.12 ± 0.06 J/K/mol | molar heat capacity at constant pressure (25 K): 1.21 ± 0.06 J/K/mol | molar heat capacity at constant pressure (25.43 K): 1.26 ± 0.07 J/K/mol | molar heat capacity at constant pressure (26.78 K): 1.42 ± 0.08 J/K/mol | molar heat capacity at constant pressure (28.14 K): 1.6 ± 0.09 J/K/mol | molar heat capacity at constant pressure (29.6 K): 1.8 ± 0.1 J/K/mol | molar heat capacity at constant pressure (30 K): 1.85 ± 0.1 J/K/mol | molar heat capacity at constant pressure (31.12 K): 2.01 ± 0.11 J/K/mol | molar heat capacity at constant pressure (32.74 K): 2.25 ± 0.12 J/K/mol | molar heat capacity at constant pressure (34.45 K): 2.52 ± 0.13 J/K/mol | molar heat capacity at constant pressure (35 K): 2.62 ± 0.14 J/K/mol | molar heat capacity at constant pressure (36.24 K): 2.82 ± 0.15 J/K/mol | molar heat capacity at constant pressure (38.12 K): 3.16 ± 0.17 J/K/mol | molar heat capacity at constant pressure (40 K): 3.52 ± 0.19 J/K/mol | molar heat capacity at constant pressure (40.1 K): 3.54 ± 0.19 J/K/mol | molar heat capacity at constant pressure (42.19 K): 3.95 ± 0.21 J/K/mol | molar heat capacity at constant pressure (44.41 K): 4.41 ± 0.24 J/K/mol | molar heat capacity at constant pressure (45 K): 4.54 ± 0.24 J/K/mol | molar heat capacity at constant pressure (46.71 K): 4.93 ± 0.26 J/K/mol | molar heat capacity at constant pressure (49.16 K): 5.48 ± 0.29 J/K/mol | molar heat capacity at constant pressure (50 K): 5.66 ± 0.3 J/K/mol | molar heat capacity at constant pressure (51.71 K): 6.07 ± 0.32 J/K/mol | molar heat capacity at constant pressure (54.41 K): 6.71 ± 0.36 J/K/mol | molar heat capacity at constant pressure (55 K): 6.87 ± 0.37 J/K/mol | molar heat capacity at constant pressure (57.24 K): 7.42 ± 0.4 J/K/mol | molar heat capacity at constant pressure (60 K): 8.12 ± 0.43 J/K/mol | molar heat capacity at constant pressure (60.22 K): 8.18 ± 0.44 J/K/mol | molar heat capacity at constant pressure (63.37 K): 8.97 ± 0.48 J/K/mol | molar heat capacity at constant pressure (65 K): 9.38 ± 0.5 J/K/mol | molar heat capacity at constant pressure (66.7 K): 9.78 ± 0.52 J/K/mol | molar heat capacity at constant pressure (70 K): 10.75 ± 0.57 J/K/mol | molar heat capacity at constant pressure (70.19 K): 10.75 ± 0.57 J/K/mol | molar heat capacity at constant pressure (73.8 K): 11.78 ± 0.63 J/K/mol | molar heat capacity at constant pressure (75 K): 12.2 ± 0.65 J/K/mol | molar heat capacity at constant pressure (77.13 K): 12.82 ± 0.68 J/K/mol | molar heat capacity at constant pressure (80 K): 13.67 ± 0.73 J/K/mol | molar heat capacity at constant pressure (81.7 K): 13.98 ± 0.75 J/K/mol | molar heat capacity at constant pressure (85 K): 15.16 ± 0.81 J/K/mol | molar heat capacity at constant pressure (85.33 K): 15.22 ± 0.81 J/K/mol | molar heat capacity at constant pressure (89.74 K): 16.6 ± 0.89 J/K/mol | molar heat capacity at constant pressure (90 K): 16.65 ± 0.89 J/K/mol | molar heat capacity at constant pressure (94.38 K): 17.97 ± 0.96 J/K/mol | molar heat capacity at constant pressure (95 K): 18.14 ± 0.97 J/K/mol | molar heat capacity at constant pressure (99.29 K): 19.28 ± 1 J/K/mol | molar heat capacity at constant pressure (100 K): 19.6 ± 1.1 J/K/mol | molar heat capacity at constant pressure (104.43 K): 20.84 ± 1.1 J/K/mol | molar heat capacity at constant pressure (109.84 K): 22.53 ± 1.2 J/K/mol | molar heat capacity at constant pressure (110 K): 22.48 ± 1.2 J/K/mol | molar heat capacity at constant pressure (115.54 K): 24.21 ± 1.3 J/K/mol | molar heat capacity at constant pressure (120 K): 25.26 ± 1.4 J/K/mol | molar heat capacity at constant pressure (121.46 K): 25.88 ± 1.4 J/K/mol | molar heat capacity at constant pressure (128.44 K): 27.05 ± 1.4 J/K/mol | molar heat capacity at constant pressure (130 K): 27.96 ± 1.5 J/K/mol | molar heat capacity at constant pressure (134.65 K): 29.35 ± 1.6 J/K/mol | molar heat capacity at constant pressure (140 K): 30.55 ± 1.6 J/K/mol | molar heat capacity at constant pressure (141.61 K): 31.35 ± 1.7 J/K/mol | molar heat capacity at constant pressure (148.86 K): 33.43 ± 1.8 J/K/mol | molar heat capacity at constant pressure (150 K): 33.04 ± 1.8 J/K/mol | molar heat capacity at constant pressure (156.57 K): 35.12 ± 1.9 J/K/mol | molar heat capacity at constant pressure (160 K): 35.43 ± 1.9 J/K/mol | molar heat capacity at constant pressure (165.09 K): 36.06 ± 1.9 J/K/mol | molar heat capacity at constant pressure (170 K): 37.72 ± 2 J/K/mol | molar heat capacity at constant pressure (173.67 K): 37.71 ± 2 J/K/mol | molar heat capacity at constant pressure (180 K): 39.89 ± 2.1 J/K/mol | molar heat capacity at constant pressure (182.65 K): 39.71 ± 2.1 J/K/mol | molar heat capacity at constant pressure (190 K): 41.95 ± 2.2 J/K/mol | molar heat capacity at constant pressure (192.19 K): 41.35 ± 2.2 J/K/mol | molar heat capacity at constant pressure (200 K): 43.91 ± 2.3 J/K/mol | molar heat capacity at constant pressure (201.69 K): 44.69 ± 2.4 J/K/mol | molar heat capacity at constant pressure (210 K): 45.75 ± 2.4 J/K/mol | molar heat capacity at constant pressure (212.16 K): 46.49 ± 2.5 J/K/mol | molar heat capacity at constant pressure (220 K): 47.49 ± 2.5 J/K/mol | molar heat capacity at constant pressure (223.15 K): 48.5 ± 2.6 J/K/mol | molar heat capacity at constant pressure (230 K): 49.13 ± 2.6 J/K/mol | molar heat capacity at constant pressure (234.7 K): 50.34 ± 2.7 J/K/mol | molar heat capacity at constant pressure (240 K): 50.66 ± 2.7 J/K/mol | molar heat capacity at constant pressure (246.88 K): 52.02 ± 2.8 J/K/mol | molar heat capacity at constant pressure (250 K): 52.11 ± 2.8 J/K/mol | molar heat capacity at constant pressure (259.67 K): 53.63 ± 2.9 J/K/mol | molar heat capacity at constant pressure (260 K): 53.46 ± 2.9 J/K/mol | molar heat capacity at constant pressure (270 K): 54.73 ± 2.9 J/K/mol | molar heat capacity at constant pressure (273.07 K): 55.28 ± 3 J/K/mol | molar heat capacity at constant pressure (273.15 K): 55.11 ± 2.9 J/K/mol | molar heat capacity at constant pressure (280 K): 55.92 ± 3 J/K/mol | molar heat capacity at constant pressure (287.77 K): 56.22 ± 3 J/K/mol | molar heat capacity at constant pressure (290 K): 57.04 ± 3 J/K/mol | molar heat capacity at constant pressure (298.15 K): 57.89 ± 3.1 J/K/mol | molar heat capacity at constant pressure (300 K): 58.08 ± 3.1 J/K/mol | molar heat capacity at constant pressure (302.73 K): 58.1 ± 3.1 J/K/mol | molar heat capacity at constant pressure (305 K): 58.58 ± 3.1 J/K/mol
